According to patent US10174045B2, “Benzopyrylium compounds” (Pierce Biotechnology, Inc., priority 2012, dated 2019):
Marks after values point to notes of the source that are not given here.

Tests used:
[1] = Excitation/emission properties of dye NHS esters; assay type: physicochemical
Description: The following properties of V03-07005, V08-16072, V13-06190, and V17-03019 were compared with commercially available dyes. DyLight 680 NHS is a non-pegylated benzopyrylium dye and the ‘V’ dyes are pegylated dyes described above.

[2] = tested on: lamin B1 in U2OS cells; assay: Immunofluorescence cell based assay, detection of lamin B1 with dye-GAR; settings: for quenching with molar excess: lamin B1 experiment
Procedure: (§1) In the indicated experiments, the inventive compounds and commercial dye were evaluated for immunofluorescence in a cell based assay using the following protocol. Frozen U20S cell plates stored at −80° C. were thawed for 30 minutes at 50° C. Storage buffer (PBS) was removed and the cells were permeabilized for 15 minutes with 0.1% Triton-X100 in 1×PBS buffer (100 μl/well). The cell plate was blocked for 60 minutes in 2% BSA/PBS-0.1% Triton-X100. Primary antibody, either rabbit anti-lamin B1 or rabbit anti-HDAC2 (10 μg/ml), diluted in 2% BSA/PBS-0.1% Triton-X100 was added to the plate and incubated for one hour at room temperature. Control wells contained only 2% BSA/PBS-0.1% Triton-X100 blocker. After incubation, antibody solution was removed from the plate and the plate was washed three times with 100 μl/well PBS-0.5% Tween-20 and one time with 100 μl/well PBS. GAR secondary antibodies labeled with various molar excess of the inventive or commercial compound were diluted to 4 μg/ml in PBS and incubated for one hour at room temperature. Plates were washed three times with 100 μl/well PBST and once with 100 μl/well PBS, and Hoechst (diluted to 0.1 μg/ml in PBS) was added to each well (100 μl/well). The plates were scanned on ArrayScan Plate Reader.
Quantitative analysis of the data of FIGS. 11-13, expressed as Mean Total Intensity, which is the average total intensity of all pixels within a defined area or defined primary object such as a nucleus, is shown below; “Neg” indicates negative control.

[3] = tested on: mouse IgG immunoglobulin; assay: Functional plate assay of dye-GAM conjugates, LiCor Odyssey 700 channel; assay type: binding; settings: GAM conjugated with 5× molar excess, FIG. 6-7
Procedure: Performance of dye-GAM and dye-GAR conjugates was evaluated in a functional assay. Wells of a 96-well black clear-bottom plate were coated with target protein mouse or rabbit IgG immunoglobulin. One hundred μl mouse or rabbit IgG, at 10 μg/ml, was applied to the corresponding wells in row 1. The target proteins were serially diluted 1:1 from the wells in rows 2 to 7 using 100 μl PBS. One hundred μl of samples from the wells in row 7 were discarded. One hundred μl PBS was added to the wells in row 8. Plates were incubated overnight at 4° C. and then blocked 2×200 μl with Thermo Scientific SuperBlock® Blocking Buffer. The coated plates were washed 2×200 μl with PBS-Tween and 1×200 μl with PBS. Based on the calculated concentrations, conjugates were diluted 1:250 (of 1 mg/ml) in PBS, added to the corresponding plates (100 μl/well) and then incubated for one hour in the dark. The plates were washed with 2×200 μl with PBS-Tween and 1×200 μl with PBS and filled with PBS buffer (100 μl/well) prior to scanning the black clear-bottom plates on LiCor Odyssey at 700 channel, to detect fluorescence intensity.
As shown in FIGS. 1-10, RFU and/or signal to background ratio (S/B) of the dyes conjugated to the indicated antibody were compared at various concentrations, using the indicated conjugation conditions.

[4] = tested on: NCoR2 in U2OS cells; assay: Immunofluorescence cell based assay, detection of NCoR2 with dye-GAM; settings: for quenching with molar excess: NCoR2 experiment
Procedure: (§2) In the indicated experiments, the inventive compounds and commercial dye were evaluated for immunofluorescence in a cell based assay using the following protocol. Frozen U20S cell plates which were stored at −80° C. were thawed for 30 minutes at 50° C. Storage buffer (PBS) was removed and cells were permeabilized for 15 minutes with 0.1% Triton-X100 in 1×PBS buffer (100 μl/well). The cell plate was blocked for 60 minutes in 2% BSA/PBS-0.1% Triton-X100. Primary antibody, either mouse anti-ezrin (1.3 μg/ml) or mouse anti-NCoR2 (20 μg/ml), diluted in 2% BSA/PBS-0.1% Triton-X100 was added to the plate and incubated for one hour at room temperature. Control wells contained only 2% BSA/PBS-0.1% Triton-X100 blocker. After incubation, the antibody solution was removed from the plate and the plate was washed three times with 100 μl/well of PBS-0.5% Tween-20 and one time with 100 μl/well PBS. GAM secondary antibodies labeled with various molar excess of the inventive or commercial compound were diluted to 4 μg/ml in PBS and incubated for one hour at room temperature. The plates were washed three times with 100 μl/well of PBST and once with 100 μl/well PBS, and Hoechst (diluted to 0.1 μg/ml in PBS) was added to each well (100 μl/well). The plates were scanned on ArrayScan Plate Reader.
NCoR2 was detected in U2OS cells with V03-07005-GAM, V08-16072-GAM, V13-06190-GAM, V17-03019-GAM, DyLight 680-GAM, and Alexa Fluor 680-GAM at a 2.5×, 5×, 10×, and 15× molar excesses. Quantitative analysis of the data, expressed as Mean Total Intensity, which is the average total intensity of all pixels within a defined area or defined primary object such as a nucleus, is shown below, where “Neg” indicates the negative control condition.

[5] = tested on: ezrin in U2OS cells; assay: Immunofluorescence cell based assay, detection of ezrin with dye-GAM; settings: 2.5×-15× molar excess
Procedure: as §2, with “The plates were washed three times with 100 μl/well of PBST and once with 100 μl/well PBS, and Hoechst (diluted to 0.1 μg/ml in PBS) was added to each well (100 μl/well).” left out
Quantitative analysis of the data of FIGS. 17-19, expressed as Mean Total Intensity, which is the average total intensity of all pixels within a defined area or defined primary object such as a nucleus, is shown below; “Neg” indicates negative control.

[6] = tested on: U2OS cells; assay: Immunofluorescence cell based assays, overall summary; settings: summary of all immunofluorescence experiments
Procedure: as §1
In the indicated experiments, the inventive compounds and commercial dye were evaluated for immunofluorescence in a cell based assay using the following protocol. Frozen U20S cell plates which were stored at −80° C. were thawed for 30 minutes at 50° C. Storage buffer (PBS) was removed and cells were permeabilized for 15 minutes with 0.1% Triton-X100 in 1×PBS buffer (100 μl/well). The cell plate was blocked for 60 minutes in 2% BSA/PBS-0.1% Triton-X100. Primary antibody, either mouse anti-ezrin (1.3 μg/ml) or mouse anti-NCoR2 (20 μg/ml), diluted in 2% BSA/PBS-0.1% Triton-X100 was added to the plate and incubated for one hour at room temperature. Control wells contained only 2% BSA/PBS-0.1% Triton-X100 blocker. […] The plates were scanned on ArrayScan Plate Reader.

[7] = tested on: HDAC2 in U2OS cells; assay: Immunofluorescence cell based assay, nuclear detection of HDAC2 with dye-GAR; settings: for quenching with molar excess: HDAC2 experiment
Procedure: as §1
Quantitative analysis of the data of FIGS. 14-16, expressed as Mean Total Intensity, which is the average total intensity of all pixels within a defined area or defined primary object such as a nucleus, is shown below; “Neg” indicates negative control.

SMILES	Ex ([1]; EtOH)	Ex ([1]; PBS)	Em [1] [nm]	further results
COCCOCCOCCOCCN(CCOCCOCCOCCOC)c1ccc2c(C(C)(C)C)cc(/C=C/C=C3/N(CCCS(=O)(=O)[O-])c4ccc(S(=O)(=O)[O-])cc4C3(C)CCCC(=O)O)[o+]c2c1.[Na+] (stereo not shown) [Compound V03-07005, (E)-2-((E)-3-(4-tert-butyl-7-(di2,5,8,11-tetraoxatridecan-13-ylamino)chromenylium-2-yl)allylidene)-3-(3-carboxypropyl)-3-methyl-1-(3-sulfonatopropyl)indoline-5-sulfonate]	690 nm	about 675 nm	–	staining / S/B performance, in words ([2]; lamin B1, 2.5×-15× molar excess): best performing benzopyrylium dye; binding intensity (RFU), in words [3]: performed best of the benzopyrylium dyes; staining / S/B performance, in words ([4]; NCoR2, 2.5×-15× molar excess): best performing benzopyrylium dye; staining / S/B performance, in words [5]: best performing benzopyrylium dye; staining performance, in words [6]: best performing benzopyrylium dye; staining / S/B performance, in words ([7]; HDAC2, 2.5×-15× molar excess): best performing benzopyrylium dye
COCCOCCOCCOCCN(CCCS(=O)(=O)[O-])c1ccc2c(C(C)(C)C)cc(/C=C/C=C3/N(CCCCCC(=O)O)c4ccc(S(=O)(=O)[O-])cc4C3(C)CCCS(=O)(=O)[O-])[o+]c2c1.[Na+].[Na+] (stereo not shown) [Compound V08-16072, (E)-2-((E)-3-(4-tert-butyl-7-((3-sulfonatopropyl)(2,5,8,11-tetraoxatridecan-13-yl)amino)chromenylium-2-yl)allylidene)-1-(5-carboxypentyl)-3-methyl-3-(3-sulfonatopropyl)indoline-5-sulfonate]	690 nm	about 675 nm	–	quenching with molar excess [2]: gradually quenching from 2.5× molar excess condition; quenching with molar excess [4]: gradually quenched from the 2.5× molar excess condition; quenching with molar excess [6]: gradual quenching from 2.5× molar excess condition; quenching with molar excess [7]: gradually quenching from 2.5× molar excess condition
COCCOCCOCCOCCN(CCCS(=O)(=O)[O-])c1ccc2c(C(C)(C)C)cc(/C=C/C=C3/N(CCOCCOCCOCCOCCC(=O)O)c4ccc(S(=O)(=O)[O-])cc4C3(C)CCCS(=O)(=O)[O-])[o+]c2c1.[Na+].[Na+] (stereo not shown) [Compound V13-06190, (E)-2-((E)-3-(4-tert-butyl-7-((3-sulfonatopropyl)(2,5,8,11-tetraoxatridecan-13-yl)amino)chromenylium-2-yl)allylidene)-1-(14-carboxy-3,6,9,12-tetraoxatetradecyl)-3-methyl-3-(3-sulfonatopropyl)indoline-5-sulfonate]	690 nm	about 675 nm	–	quenching with molar excess [2]: gradually quenching from 2.5× molar excess condition; quenching with molar excess [4]: gradually quenched from the 2.5× molar excess condition; quenching with molar excess [6]: gradual quenching from 2.5× molar excess condition; quenching with molar excess [7]: gradually quenching from 2.5× molar excess condition
COCCOCCOCCOCCN(CCCS(=O)(=O)[O-])c1ccc2c(C(C)(C)C)cc(/C=C/C=C3/N(CCCS(=O)(=O)[O-])c4ccc(S(=O)(=O)[O-])cc4C3(C)CCCC(=O)O)[o+]c2c1.[Na+].[Na+] (stereo not shown) [Compound V17-03019, (E)-2-((E)-3-(4-tert-butyl-7-((3-sulfonatopropyl)(2,5,8,11-tetraoxatridecan-13-yl)amino)chromenylium-2-yl)allylidene)-3-(3-carboxypropyl)-3-methyl-1-(3-sulfonatopropyl)indoline-5-sulfonate]	690 nm	about 675 nm	–	–

Continued, in another order:

Ex ([1]; EtOH)	Ex ([1]; PBS)	Em [1] [nm]	SMILES	further results
690 (EtOH) nm	675 (PBS)* nm	708	COCCOCCOCCOCCN(CCOCCOCCOCCOC)c1ccc2c(C(C)(C)C)cc(/C=C/C=C3/N(CCCS(=O)(=O)[O-])c4ccc(S(=O)(=O)[O-])cc4C3(C)CCCC(=O)ON3C(=O)CCC3=O)[o+]c2c1.[Na+] (stereo not shown) [V03-07005-NHS]	–
691 (EtOH) nm	679 (PBS)* nm	712	COCCOCCOCCOCCN(CCCS(=O)(=O)[O-])c1ccc2c(C(C)(C)C)cc(/C=C/C=C3/N(CCCCCC(=O)ON4C(=O)CCC4=O)c4ccc(S(=O)(=O)[O-])cc4C3(C)CCCS(=O)(=O)[O-])[o+]c2c1.[Na+].[Na+] (stereo not shown) [V08-16072-NHS]	–
691 (EtOH) nm	679 (PBS)* nm	712	COCCOCCOCCOCCN(CCCS(=O)(=O)[O-])c1ccc2c(C(C)(C)C)cc(/C=C/C=C3/N(CCOCCOCCOCCOCCC(=O)ON4C(=O)CCC4=O)c4ccc(S(=O)(=O)[O-])cc4C3(C)CCCS(=O)(=O)[O-])[o+]c2c1.[Na+].[Na+] (stereo not shown) [V13-06190-NHS]	–
691 (EtOH) nm	675 (PBS)* nm	712	COCCOCCOCCOCCN(CCCS(=O)(=O)[O-])c1ccc2c(C(C)(C)C)cc(/C=C/C=C3/N(CCCS(=O)(=O)[O-])c4ccc(S(=O)(=O)[O-])cc4C3(C)CCCC(=O)ON3C(=O)CCC3=O)[o+]c2c1.[Na+].[Na+] (stereo not shown) [V17-03019-NHS]	–
